Experimental data reported in ChEMBL document CHEMBL1201862, “PubChem BioAssay data set” (2004).
Active and inactive are the calls of the source.

What was measured:
[1] = target: T1, Zinc finger protein mex-5 (Caenorhabditis elegans, UniProt Q9XUB2); test: MEX-5/TCR-2 RNA interaction inhibitors, dose response, biochemical, C. elegans, fluorescence polarization (AID 1960)
T1 sequence (Q9XUB2 whole entry): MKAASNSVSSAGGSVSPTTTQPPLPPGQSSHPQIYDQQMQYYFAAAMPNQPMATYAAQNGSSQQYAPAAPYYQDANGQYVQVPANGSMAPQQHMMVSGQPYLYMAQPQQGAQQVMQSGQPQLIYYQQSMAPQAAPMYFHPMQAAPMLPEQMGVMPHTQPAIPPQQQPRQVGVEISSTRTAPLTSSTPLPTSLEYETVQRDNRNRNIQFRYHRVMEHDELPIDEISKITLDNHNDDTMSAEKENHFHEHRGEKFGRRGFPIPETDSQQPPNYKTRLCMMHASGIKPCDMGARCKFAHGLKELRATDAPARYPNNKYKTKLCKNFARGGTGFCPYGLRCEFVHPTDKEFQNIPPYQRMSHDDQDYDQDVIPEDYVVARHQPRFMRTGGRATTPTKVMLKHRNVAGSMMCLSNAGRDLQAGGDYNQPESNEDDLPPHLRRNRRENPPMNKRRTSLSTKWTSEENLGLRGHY

[2] = target: T2, RNA-binding protein pos-1 (Caenorhabditis elegans, UniProt G5EF15); test: inhibitors of POS-1/mex-3 RNA binding, dose response, biochemical, fluorescence polarization (AID 1964);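 further: purified POS-1 fused to maltose binding protein made in E. coli; potency of compounds blocking POS-1 binding to fluorescent RNA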
T2 sequence (G5EF15 whole entry): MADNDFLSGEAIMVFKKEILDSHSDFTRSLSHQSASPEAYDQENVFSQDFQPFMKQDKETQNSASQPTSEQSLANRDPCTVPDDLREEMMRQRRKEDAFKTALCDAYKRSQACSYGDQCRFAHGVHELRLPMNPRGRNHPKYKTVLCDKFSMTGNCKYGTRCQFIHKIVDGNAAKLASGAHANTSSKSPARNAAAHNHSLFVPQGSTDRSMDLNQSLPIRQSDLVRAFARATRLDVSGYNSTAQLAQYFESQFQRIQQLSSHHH

[3] = target: FAD-linked sulfhydryl oxidase ALR (Homo sapiens, UniProt P55789); test: inhibitors of human ALR sulfhydryl oxidase, dose response, biochemical, H2O2 detection, luminescence, cherry-pick (AID 493248)
Protein skinhead-1 = target: T3, Protein skinhead-1 (Caenorhabditis elegans, UniProt P34707); assay type: functional
T3 sequence (P34707 whole entry): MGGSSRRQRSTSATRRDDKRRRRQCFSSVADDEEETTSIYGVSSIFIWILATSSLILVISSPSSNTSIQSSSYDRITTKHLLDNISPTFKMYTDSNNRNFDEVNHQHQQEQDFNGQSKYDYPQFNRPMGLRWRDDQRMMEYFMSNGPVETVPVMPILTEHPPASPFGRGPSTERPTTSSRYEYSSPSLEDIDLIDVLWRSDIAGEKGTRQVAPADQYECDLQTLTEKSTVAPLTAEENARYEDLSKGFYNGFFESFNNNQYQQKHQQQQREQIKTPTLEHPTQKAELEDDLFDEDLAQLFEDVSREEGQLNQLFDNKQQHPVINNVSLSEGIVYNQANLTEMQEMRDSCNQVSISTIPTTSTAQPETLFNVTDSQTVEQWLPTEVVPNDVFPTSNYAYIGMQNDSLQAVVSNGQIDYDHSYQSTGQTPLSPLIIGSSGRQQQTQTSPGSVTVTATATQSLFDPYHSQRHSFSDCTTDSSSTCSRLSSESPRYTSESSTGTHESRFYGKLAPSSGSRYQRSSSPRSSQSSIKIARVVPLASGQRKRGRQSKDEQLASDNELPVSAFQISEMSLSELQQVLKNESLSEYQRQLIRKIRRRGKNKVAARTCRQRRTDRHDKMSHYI

INS1 = test: beta cell apoptosis inhibitors, cytokine rescue, dose response, luminescence, retest (AID 449756); assay type: functional, cell-based; conditions: Rattus norvegicus;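 further: cell death triggered by IL-1 beta plus TNF-alpha plus IFN-gamma mixture; protective hits raise ATP signal compared with cytokine alone wells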
[4] = Luminescence Cell-Based Dose Response HTS to Identify Activators of Luciferase Translation or Activity in H4 […] Cells. [Related pubchem assays: 1829 (Project Summary), 1814 (Primary HTS)]; assay type: functional
H4 = test: Luminescence Cell-Based Dose Response HTS to Identify Activators of 5'UTR Stem-Loop Driven Prion Protein mRNA Translation in H4 Neuroglioblastoma Cells. [Related pubchem assays: 1829 (Project Summary), 1814 (Primary HTS)]; assay type: functional; conditions: Homo sapiens
[5] = cytotoxicity toward NIH3T3 fibroblasts, dose response, counter-screen, cell-based, ATP luminescence, mouse fibroblasts (AID 2010); assay type: functional;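 further: cells exposed to compound for about 90 hours before reading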
[6] = inhibitors of intracellular T. cruzi replication, confirmation, NIH3T3 host cells, beta-gal luminescence (AID 2044); assay type: functional, cell-based;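 further: intracellular parasites grown in NIH/3T3 mouse fibroblasts as host cells; luminescent beta-galactosidase reporter signal from transgenic T. cruzi replicating inside host cells; inhibitors lower the luminescence signal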
Paired box protein Pax-8 = Paired box protein Pax-8 (Homo sapiens, UniProt Q06710); test: inhibitors of PAX8-driven TPO luciferase reporter, dose response, RMG-I cells, cherry-pick (AID 687027); assay type: functional, cell-based;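 further: luciferase reporter driven by Pax8 target thyroperoxidase promoter measured by SteadyGlo luminescence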
[7] = target: T4, Rac GTPase-activating protein 1 (Homo sapiens, UniProt Q9H0H5); test: MgcRacGAP GTPase-activating activity inhibitors, confirmation, biochemical, ADP Hunter fluorescence, primary and confirmatory (AID 624330); assay type: functional
T4 sequence (Q9H0H5 whole entry): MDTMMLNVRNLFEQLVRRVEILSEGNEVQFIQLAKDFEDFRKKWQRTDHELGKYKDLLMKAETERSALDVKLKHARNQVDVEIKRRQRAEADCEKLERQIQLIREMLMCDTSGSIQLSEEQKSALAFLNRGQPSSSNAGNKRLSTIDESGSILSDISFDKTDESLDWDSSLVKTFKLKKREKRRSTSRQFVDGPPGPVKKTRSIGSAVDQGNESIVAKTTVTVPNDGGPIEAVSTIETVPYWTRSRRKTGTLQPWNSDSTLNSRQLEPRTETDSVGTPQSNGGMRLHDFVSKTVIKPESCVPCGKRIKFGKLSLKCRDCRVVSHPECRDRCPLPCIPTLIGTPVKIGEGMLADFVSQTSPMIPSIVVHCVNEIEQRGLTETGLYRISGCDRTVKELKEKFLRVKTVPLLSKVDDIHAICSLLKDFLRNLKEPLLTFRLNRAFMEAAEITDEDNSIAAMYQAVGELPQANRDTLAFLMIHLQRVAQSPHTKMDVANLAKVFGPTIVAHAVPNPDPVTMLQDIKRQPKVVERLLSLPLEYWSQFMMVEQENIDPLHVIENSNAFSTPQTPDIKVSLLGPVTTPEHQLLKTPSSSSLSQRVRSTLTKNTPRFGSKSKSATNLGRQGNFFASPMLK

Sequence of FAD-linked sulfhydryl oxidase ALR (P55789 whole entry): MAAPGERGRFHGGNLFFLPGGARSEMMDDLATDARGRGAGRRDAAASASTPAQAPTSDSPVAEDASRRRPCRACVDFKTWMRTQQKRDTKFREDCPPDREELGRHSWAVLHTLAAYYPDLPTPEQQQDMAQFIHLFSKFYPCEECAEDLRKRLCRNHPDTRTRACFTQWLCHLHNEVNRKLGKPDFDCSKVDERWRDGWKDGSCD
Sequence of Paired box protein Pax-8 (Q06710 whole entry): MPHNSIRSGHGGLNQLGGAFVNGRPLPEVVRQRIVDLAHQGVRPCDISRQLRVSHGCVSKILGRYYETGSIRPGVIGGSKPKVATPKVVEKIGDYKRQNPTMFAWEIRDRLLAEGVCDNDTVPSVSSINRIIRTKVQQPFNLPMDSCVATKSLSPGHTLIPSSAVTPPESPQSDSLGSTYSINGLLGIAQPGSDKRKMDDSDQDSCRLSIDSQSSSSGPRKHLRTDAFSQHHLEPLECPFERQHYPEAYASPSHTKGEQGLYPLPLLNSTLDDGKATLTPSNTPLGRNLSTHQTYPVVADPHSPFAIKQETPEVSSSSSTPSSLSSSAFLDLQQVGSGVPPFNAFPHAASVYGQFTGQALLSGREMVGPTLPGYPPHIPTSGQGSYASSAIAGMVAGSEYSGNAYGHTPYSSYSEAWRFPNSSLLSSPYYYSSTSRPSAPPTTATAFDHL

ClCc1nc2ccccc2n1Cc1ccccc1
EC50 [1]: 3.93 µM (inconclusive)
EC50 [2]: 2.24 µM (inconclusive)

COc1ccc2c(-c3ccccc3)cc(SCC(N)=O)nc2c1
EC50 [1]: > 300 µM (not active)
EC50 [2]: > 300 µM (not active)

COc1cc(/C=C/c2cc(C(=O)O)c3ccccc3n2)cc(OC)c1O
AC50 [3]: 0.141 µM (active)

Cc1ccc(S(=O)(=O)N2CC=C(c3c(C)n(C)c4ccccc34)CC2)cc1
IC50 (Protein skinhead-1): > 100 µM (inactive)

CCC(=O)Nc1cc(C)c(NC(=O)CCc2ccccc2)cn1
EC50 [1]: 26 µM (inconclusive)
EC50 [2]: 24 µM (active)

CC(C)(C)OC(=O)NCCCC1=CC2=CC(=O)C(C)(OC(=O)C3CCCC3)C(=O)C2=CO1 (stereo unspecified)
EC50 [1]: 18.7 µM (active)
EC50 [2]: 18.8 µM (active)

CCOC(=O)N1CCN(S(=O)(=O)c2ccc(C(=O)NNc3nc4ccc(Cl)cc4s3)cc2)CC1
AC50 (INS1): 3.39 µM (active)

CN1C(=O)N(c2ccccc2)C(Nc2nncs2)C1(C)C (stereo unspecified)
IC50 (Protein skinhead-1): > 100 µM (inactive)

Cc1cc(C)c(OCCOCCN2CCNCC2)c(C)c1
IC50 (Protein skinhead-1): > 100 µM (inactive)

O=C(Nc1nc(-c2ccccc2)ns1)c1cccs1
EC50 [4]: 1.32 µM (active)
AC50 [3]: 81 µM (active)
EC50 (H4): > 120 µM (not active)

O=C(Cn1cc(C=C2C(=O)NC(=O)NC2=O)c2ccccc21)NCC1CCCO1 (stereo unspecified)
EC50 [1]: 10.1 µM (active)
EC50 [2]: 16.7 µM (active)

Cc1cc(C=C2C(=O)c3ccccc3C2=O)c(C)n1-c1ccc(Cl)cc1
EC50 [1]: > 300 µM (not active)
EC50 [2]: > 300 µM (not active)

Cc1cccn2c(=O)c3cc(C(=O)NCc4ccco4)c(=N)n(C(C)C)c3nc12
EC50 [1]: 45.5 µM (active)
EC50 [2]: 40.5 µM (active)

O=C(Nc1c(C(=O)O)[nH]c2ccccc12)NC1CCCCC1
AC50 [3]: 1.26 µM (active)

Fc1ccc(Nc2c3c(nc4ccccc24)CCC3)cc1
EC50 [5]: > 60 µM (inconclusive)
EC50 [6]: 2.48 µM (active)
AC50 [3]: 6.31 µM (active)

Cc1cc(NS(=O)(=O)c2ccc(NC(=O)c3cc(-c4cccnc4)nc4ccc(Cl)cc34)cc2)no1
IC50 (Protein skinhead-1): > 100 µM (inactive)

CC1CCC2C(C1)Nc1c(C(=O)O)cccc1C2(C)C (stereo unspecified)
AC50 [3]: 4.55 µM (active)

CCOCCCNc1nc2nc3ccc(C)cn3c(=O)c2cc1C(=O)NCC1CCCO1 (stereo unspecified)
EC50 [1]: > 300 µM (not active)
EC50 [2]: > 300 µM (not active)

Cc1cc(S(=O)(=O)Nc2ccc(N(C)C)cc2)c(C)s1
AC50 [3]: 0.704 µM (active)

Cc1cc(C)cc(N2C(=O)CSC2c2ccccn2)c1 (stereo unspecified)
AC50 [3]: 0.731 µM (active)

CCCCn1ccnc1C(=O)c1cccc(S(=O)(=O)N2c3ccccc3CC2C)c1 (stereo unspecified)
IC50 (Protein skinhead-1): > 100 µM (inactive)

Cc1ccc(CSCC(=O)N2CCOCC2)cc1
IC50 (Protein skinhead-1): > 100 µM (inactive)

COc1ccc(-c2nn(CC(=O)Nc3ccc(Cl)c(Cl)c3)c(=O)c3ccccc23)cc1
IC50 (Protein skinhead-1): > 100 µM (inactive)

COc1ccc(N2C(=O)CSC2c2ccccc2[N+](=O)[O-])cc1 (stereo unspecified)
AC50 [3]: 4.55 µM (active)

O=C(NC1CCN(C(=S)Nc2ccc(Cl)cc2)CC1)c1ccco1
IC50 (Protein skinhead-1): > 100 µM (inactive)

CCN(CC)c1ccc(CN2CCC(C(=O)NCc3ccc(C)cc3)CC2)cc1
AC50 [3]: 5.7 µM (active)

O=C(NCc1ccccn1)C1Nc2ccc(OC(F)(F)F)cc2C2C=CCC12 (stereo unspecified)
EC50 [1]: > 300 µM (not active)
EC50 [2]: > 300 µM (not active)

O=[N+]([O-])c1cccc(-c2cn3nc(-c4ccccc4)c(-c4ccccc4)nc3n2)c1
EC50 [1]: 99 µM (active)
EC50 [2]: > 300 µM (not active)
AC50 (INS1): 11 µM (active)

CCCS(=O)(=O)NCc1ccc2c(c1)cc(C)n2C
IC50 (Protein skinhead-1): > 100 µM (inactive)

COC(=O)c1c(-c2ccccc2)noc1-c1ccccc1
IC50 (Protein skinhead-1): 58.6 µM (inactive)

Brc1ccc(-[n+]2c(-c3ccccc3)cc(-c3ccccc3)cc2-c2ccccc2)cc1.[O-][Cl+3]([O-])([O-])[O-]
AC50 (INS1): 2.04 µM (active)

COc1ccc(C2(c3ccc(OC)cc3)NC(=O)N(CC(=O)NC3CCS(=O)(=O)C3)C2=O)cc1 (stereo unspecified)
IC50 (Protein skinhead-1): > 100 µM (inactive)

O=[N+]([O-])c1cc2c(cc1Br)-c1ccccc1C2
IC50 (Protein skinhead-1): > 100 µM (inactive)

CN1c2ccc(-c3ccc(C#N)cc3)cc2[C@@H]2[C@@H](CCN2C(=O)NC2CCCCC2)[C@@H]1CO
AC50 (Paired box protein Pax-8): 19.9 µM (active)

C[C@@H]1CCCCO[C@@H](CN(C)C(=O)Cc2ccccc2)[C@@H](C)CN([C@@H](C)CO)C(=O)c2cc(NC(=O)Nc3ccc(C(F)(F)F)cc3)ccc2O1
AC50 (Paired box protein Pax-8): 4.87 µM (active)

C[C@@H]1CN([C@H](C)CO)C(=O)c2cc(NC(=O)Nc3ccccc3)ccc2O[C@@H](C)CCCCO[C@H]1CN(C)Cc1ccc(Cl)c(Cl)c1
AC50 (Paired box protein Pax-8): 7.42 µM (active)

CCN(CC)S(=O)(=O)c1ccc(/N=N/c2c(C)[nH]n(C(N)=S)c2=O)cc1
AC50 [3]: 0.782 µM (active)

COc1cc(/C=N/NC(=O)c2cccc(N3CCCC3=O)c2)ccc1O
IC50 [7]: 30.9 µM (active)
AC50 [3]: 2.71 µM (active)

O=C(N/N=C\c1ccc(-c2ccc(Cl)c(Cl)c2)o1)C(=O)N1CCCC1
EC50 [1]: 29.6 µM (active)
EC50 [2]: 49.5 µM (active)
